{"source": "patent US20240116945A1", "about": "“EXATECAN-DERIVED TOPOISOMERASE-1 INHIBITORS PHARMACEUTICAL COMPOSITIONS, AND USES THEREOF” (Merck Sharp & Dohme LLC, priority 2022, published 2024)", "note": "Counter-ions that a name gives are not always drawn.", "data": [{"system": "Jeko-1 cells", "assay": "CellTiter-Glo 2.0 Cytotoxicity Assay", "assay_type": "cell-based", "settings": "Homo sapiens, JeKo-1, read-out: Jeko-1 EC50 (nM), Jeko-1 cells, 3000 cells/well; compounds added Day 1; CellTiter-Glo 2.0 luminescence read on Day 4 or 5", "procedure": "(§1) Reaction progress and synthetic intermediate analysis were assessed by LCMS (UV detection with ESI, APCI, or other mass detection) when applicable using a MeCN/water gradient with either TFA, formic acid, or NH4HCO3 modifier. Silica gel and reverse-phase flash column chromatography were conducted with commercially available pre-packed columns. Reverse-phase preparative HPLC purification was performed on preparative HPLC instruments with UV and MS detection using a MeCN/water gradient with either TFA, formic acid, or NH4OH modifier. ^1H NMR spectra were collected at room temperature, and chemical shifts are reported in ppm relative to the residual proteo-solvent signals, and multiplicities, coupling constants (where applicable), and signal integrations are listed parenthetically. Unless otherwise noted, all EC50 data presented in tables refers to the CellTiter-Glo® 2.0 Cytotoxicity Assay that is described in the Biological Assay section.\n(§2) CellTiter-Glo® 2.0 Cytotoxicity Assay\n(§3) Step 1: Seed 384-Well Plates for Assay (45 μL Per Well) on Day 0\n(§4) Jeko-1 cells were quickly thawed in a cryo-vial by incubating them in a 37° C. water bath for <1 min until there is just a small bit of ice left in the vial. The vial was promptly removed and wiped down with 70% ethanol. The cells were transferred from the vial to a sterile centrifuge tube containing 8 mL of pre-warmed cell culture medium. The vial was flushed with an additional 1 mL of medium to ensure complete transfer of cells to the centrifuge tube. The cells were then centrifuged at 150×g for 5 minutes. The supernatant was aspirated, and the cell pellet was resuspended in 10-20 mL cell culture medium. Cells were counted using Vi-cell and prepared 6.6×10^4 cells/ml, 3000 cells/45 μL per well. Then added 45 μL/well of cells into Corning® 384-well Low Flange White Flat Bottom Polystyrene TC-treated Microplates (Corning, Cat #3570) using Standard Cassette Combi (if needed, dispense 1 dummy plate at 20 μL to help normalize Combi, using medium speed). The plates were spun down at 150×g for 30 seconds.\n(§5) Step 2: Add Compounds on Day 1\n(§6) The compound plates and reference compound stock were taken out and allowed to thaw at RT. The tubes were centrifuged at 2000×g for 30 seconds. The 10× Intermediate assay plates (Greiner plate, Cat #781280) were prepared using an Echo liquid handler. Proper buffer (HBSS (Gibco, Cat #14025-092)+10 mM HEPES (Gibco, Cat #15630-080)+0.1% BSA (Sigma, Cat #A9576)) were used to make serial dilutions. Media (no cells) was used for Max_E. Compound (5 μL of 10×) was transferred from intermediate plate to assay plate using a Bravo liquid handler using a very slow speed so the cell monolayer wasn't disturbed. The plates were spun down at 150×g for 30 seconds.\n(§7) Step 3: CellTiter-Glo 2.0 Assay (Promega, Cat #G9242) on Day 4 or 5 (CellTiter-Glo Kit Stored at −70° C.)\n(§8) The CellTiter-Glo® 2.0 Reagent was thawed at 4° C. overnight, taking care not to expose the reagent to temperatures above 25° C.). The kit was equilibrated to RT for approximately 30 minutes. CellTiter-Glo® 2.0 Reagent (20 μl) was added to 50 μl of medium containing cells using Standard Cassette Combi. The contents were mixed for 2-3 minutes on an orbital shaker to induce cell lysis. The plates were spun down at 150×g for 30 seconds. The plates were allowed to incubate at RT for 5 minutes to stabilize the luminescent signal.\n(§9) Illustrative compounds of the present disclosure were tested in the above assay in Example 15, and results are provided in the Table 9 below: […]", "units": {"EC50": "nM"}, "values": [{"smiles": "CC[C@@]1(O)C(=O)OCc2c1cc1n(c2=O)Cc2c-1nc1cc(F)c(C)c3c1c2[C@@H](NC(=O)[C@H](O)C(C)(C)CO)CC3", "note": "[Compound 3]", "EC50": 4.1}, {"smiles": "CC[C@@]1(O)C(=O)OCc2c1cc1n(c2=O)Cc2c-1nc1cc(F)c(C)c3c1c2[C@@H](NC(=O)C(C)(C)CCO)CC3", "note": "[Compound 38, N-((1S,9S)-9-ethyl-5-fluoro-9-hydroxy-4-methyl-10,13-dioxo-2,3,9,10,13,15-hexahydro-1H,12H-benzo[de]pyrano[3′,4′: 6,7]indolizino[1,2-b]quinolin-1-yl)-4-hydroxy-2,2-dimethylbutanamide]", "EC50": 4.6}, {"smiles": "CC[C@@]1(O)C(=O)OCc2c1cc1n(c2=O)Cc2c-1nc1cc(F)c(C)c3c1c2[C@@H](NC(=O)C(C)(NC(=O)[C@@H](C)N)C(F)F)CC3", "note": "(stereo partly shown) [Compound 47]", "EC50": 22}, {"smiles": "CC[C@@]1(O)C(=O)OCc2c1cc1n(c2=O)Cc2c-1nc1cc(F)c(C)c3c1c2[C@@H](NC(=O)[C@@H](N)CO)CC3", "note": "[Compound 45, (S)-2-amino-N-((1S,9S)-9-ethyl-5-fluoro-9-hydroxy-4-methyl-10,13-dioxo-2,3,9,10,13,15-hexahydro-1H,12H-benzo[de]pyrano[3′,4′: 6,7]indolizino[1,2-b]quinolin-1-yl)-3-hydroxypropanamide formate]", "EC50": 27}, {"smiles": "CC[C@@]1(O)C(=O)OCc2c1cc1n(c2=O)Cc2c-1nc1cc(F)c(C)c3c1c2[C@@H](NC(=O)C(C)(CCO)C(F)F)CC3", "note": "(single isomer, unassigned) [Compound 39]", "EC50": 4.9}, {"smiles": "CC[C@@]1(O)C(=O)OCc2c1cc1n(c2=O)Cc2c-1nc1cc(F)c(C)c3c1c2[C@@H](NC(=O)C(N)C(F)(F)F)CC3", "note": "(single isomer, unassigned) [Compound 14]", "EC50": 2.8}, {"smiles": "CC[C@@]1(O)C(=O)OCc2c1cc1n(c2=O)Cc2c-1nc1cc(F)c(C)c3c1c2[C@@H](NC(=O)[C@H](O)CN)CC3", "note": "[Compound 43]", "EC50": 27}, {"smiles": "CC[C@@]1(O)C(=O)OCc2c1cc1n(c2=O)Cc2c-1nc1cc(F)c(C)c3c1c2[C@@H](N(C)CC(F)F)CC3", "note": "[Compound 60, (1S,9S)-1-((2,2-difluoroethyl)(methyl)amino)-9-ethyl-5-fluoro-9-hydroxy-4-methyl-1,2,3,9,12,15-hexahydro-10H,13H-benzo[de]pyrano[3′,4′: 6,7]indolizino[1,2-b]quinoline-10,13-dione]", "EC50": 9.6}, {"smiles": "CC[C@@]1(O)C(=O)OCc2c1cc1n(c2=O)Cc2c-1nc1cc(F)c(C)c3c1c2[C@@H](NC(=O)[C@@H](CCO)OC)CC3", "note": "[Compound 31, (R)—N-((1S,9S)-9-ethyl-5-fluoro-9-hydroxy-4-methyl-10,13-dioxo-2,3,9,10,13,15-hexahydro-1H,12H-benzo[de]pyrano[3′,4′: 6,7]indolizino[1,2-b]quinolin-1-yl)-4-hydroxy-2-methoxybutanamide]", "EC50": 4.1}, {"smiles": "CC[C@@]1(O)C(=O)OCc2c1cc1n(c2=O)Cc2c-1nc1cc(F)c(C)c3c1c2[C@@H](NC(=O)C(C)(N)C(F)(F)F)CC3", "note": "(single isomer, unassigned) [Compound 16]", "EC50": 1.6}, {"smiles": "CC[C@@]1(O)C(=O)OCc2c1cc1n(c2=O)Cc2c-1nc1cc(F)c(C)c3c1c2[C@@H](NC(=O)C(C)(CO)CO)CC3", "note": "[Compound 6]", "EC50": 2.9}, {"smiles": "CC[C@@]1(O)C(=O)OCc2c1cc1n(c2=O)Cc2c-1nc1cc(F)c(C)c3c1c2[C@@H](NC(=O)C(F)(F)CCN)CC3", "note": "[Compound 49, 4-amino-N-((1S,9S)-9-ethyl-5-fluoro-9-hydroxy-4-methyl-10,13-dioxo-2,3,9,10,13,15-hexahydro-1H,12H-benzo[de]pyrano[3′,4′: 6,7]indolizino[1,2-b]quinolin-1-yl)-2,2-difluorobutanamide]", "EC50": 14}, {"smiles": "CC[C@@]1(O)C(=O)OCc2c1cc1n(c2=O)Cc2c-1nc1cc(F)c(C)c3c1c2[C@@H](NC(=O)[C@H](O)CO)CC3", "note": "[Compound 29]", "EC50": 3.7}, {"smiles": "CC[C@@]1(O)C(=O)OCc2c1cc1n(c2=O)Cc2c-1nc1cc(F)c(C)c3c1c2[C@@H](NCC(=O)NC(C)C)CC3", "note": "[Compound 55]", "EC50": 8.8}, {"smiles": "CC[C@@]1(O)C(=O)OCc2c1cc1n(c2=O)Cc2c-1nc1cc(F)c(C)c3c1c2[C@@H](NCC(F)(F)C(F)F)CC3", "note": "[Compound 58]", "EC50": 6.2}, {"smiles": "CC[C@@]1(O)C(=O)OCc2c1cc1n(c2=O)Cc2c-1nc1cc(F)c(C)c3c1c2[C@@H](NC(=O)[C@@H](O)CN)CC3", "note": "[Compound 44]", "EC50": 78}, {"smiles": "CC[C@@]1(O)C(=O)OCc2c1cc1n(c2=O)Cc2c-1nc1cc(F)c(C)c3c1c2[C@@H](NC(=O)C(C)(F)CO)CC3", "note": "(single isomer, unassigned) [Compound 36]", "EC50": 2.4}, {"smiles": "CC[C@@]1(O)C(=O)OCc2c1cc1n(c2=O)Cc2c-1nc1cc(F)c(C)c3c1c2[C@@H](NC(=O)C(C)(N)C1CC1)CC3", "note": "(stereo partly shown) [Compound 20]", "EC50": 5.2}, {"smiles": "CC[C@@]1(O)C(=O)OCc2c1cc1n(c2=O)Cc2c-1nc1cc(F)c(C)c3c1c2[C@@H](NC(=O)C(C)(N)COC)CC3", "note": "(stereo partly shown) [Compound 48]", "EC50": 8.7}, {"smiles": "CC[C@@]1(O)C(=O)OCc2c1cc1n(c2=O)Cc2c-1nc1cc(F)c(C)c3c1c2[C@@H](NC(=O)C(F)(F)CO)CC3", "note": "[Compound 9]", "EC50": 4}]}, {"system": "Jeko-1 cells", "assay": "CellTiter-Glo 2.0 Cytotoxicity Assay", "assay_type": "cell-based", "settings": "Homo sapiens; Jeko-1 cells, 3000 cells/well; compounds added Day 1; CellTiter-Glo 2.0 luminescence read on Day 4 or 5; read-out: Jeko-1 EC50", "procedure": "as §1, §2, §3, §4, §5, §6, §7, §8, §9", "units": {"EC50": "nM"}, "values": [{"smiles": "CC[C@@]1(O)C(=O)OCc2c1cc1n(c2=O)Cc2c-1nc1cc(F)c(C)c3c1c2[C@@H](NC(=O)C(C)(C)CO)CC3", "note": "[Compound 24, N-((1S,9S)-9-ethyl-5-fluoro-9-hydroxy-4-methyl-10,13-dioxo-2,3,9,10,13,15-hexahydro-1H,12H-benzo[de]pyrano[3′,4′: 6,7]indolizino[1,2-b]quinolin-1-yl)-3-hydroxy-2,2-dimethylpropanamide]", "EC50": 1.8}, {"smiles": "CC[C@@]1(O)C(=O)OCc2c1cc1n(c2=O)Cc2c-1nc1cc(F)c(C)c3c1c2[C@@H](NC(=O)C[C@H](C)O)CC3", "note": "[Compound 25]", "EC50": 2.6}, {"smiles": "CC[C@@]1(O)C(=O)OCc2c1cc1n(c2=O)Cc2c-1nc1cc(F)c(C)c3c1c2[C@@H](NC(=O)C[C@@H](C)O)CC3", "note": "[Compound 26]", "EC50": 2.9}]}, {"system": "Jeko-1 cells", "assay": "CellTiter-Glo 2.0 Cytotoxicity Assay", "assay_type": "cell-based", "settings": "read-out: Jeko-1 EC50; Jeko-1 cells, 3000 cells/well; compounds added Day 1; CellTiter-Glo 2.0 luminescence read on Day 4 or 5", "procedure": "as §1, §2, §3, §4, §5, §6, §7, §8, §9", "units": {"EC50": "nM"}, "values": [{"smiles": "CC[C@@]1(O)C(=O)OCc2c1cc1n(c2=O)Cc2c-1nc1cc(F)c(C)c3c1c2[C@@H](NC(=O)C(C)(CCO)C(F)F)CC3", "note": "(single isomer, unassigned) [Compound 40]", "EC50": 4.6}, {"smiles": "CC[C@@]1(O)C(=O)OCc2c1cc1n(c2=O)Cc2c-1nc1cc(F)c(C)c3c1c2[C@@H](NC(=O)C(N)(Cc1ccccc1)C(F)(F)F)CC3", "note": "(single isomer, unassigned) [Compound 19]", "EC50": 5.7}, {"smiles": "CC[C@@]1(O)C(=O)OCc2c1cc1n(c2=O)Cc2c-1nc1cc(F)c(C)c3c1c2[C@@H](NC(=O)C(F)(F)C(C)O)CC3", "note": "(single isomer, unassigned) [Compound 8]", "EC50": 1.6}, {"smiles": "CC[C@@]1(O)C(=O)OCc2c1cc1n(c2=O)Cc2c-1nc1cc(F)c(C)c3c1c2[C@@H](NC(=O)C(C)(O)CO)CC3", "note": "(single isomer, unassigned) [Compound 5]", "EC50": 6.7}, {"smiles": "CC[C@@]1(O)C(=O)OCc2c1cc1n(c2=O)Cc2c-1nc1cc(F)c(C)c3c1c2[C@@H](NC(=O)C(C)(N)C(F)(F)F)CC3", "note": "(single isomer, unassigned) [Compound 17]", "EC50": 2}]}]}
